Measurements from paper PMC4187030, “Effect of cyclodextrin complexation on phenylpropanoids’ solubility and antioxidant activity” (Beilstein Journal of Organic Chemistry, 2014).
In brackets after ≈: the same amount, converted by molar mass. Where two headings read alike, the source gives them in different places.

Legend:
[1] = Formation constants (Kf) by UV–visible spectral displacement method, α-CD; type: physicochemical; settings: UV–visible spectral displacement with MO (MO itself by direct titration), SD <10%
Experimental: (§1) Formation constant (Kf) values were calculated using a UV–visible spectral displacement method. This method implies first the characterization of the inclusion complexes between CDs and the competitor (methyl orange, MO). The results are summarized in Table 1 in comparison with values from the literature.
(§2) The UV–visible competition method with methyl orange (MO) as competitor was carried out according to the method described by Landy et al.. In order to calculate CD/PP Kf values, CD/MO inclusion complexes were firstly characterized by a direct titration method. Then, a spectral displacement method was applied by adding PP to a solution containing constant concentration of MO and CD. The addition of PP implied an absorbance increment leading to the calculation of CD/PP Kf values. Spectra were recorded between 520–530 nm for a MO concentration fixed at 0.1 mM. This wavelength range corresponds to the optimal spectral variation between the absorbance of free and complexed forms of MO. All Kf values were calculated by an algorithmic treatment applied to the first derivatives of UV spectra in order to avoid any spectral influence of diffraction phenomena. Absorption studies were performed using a UV–visible dual-beam spectrophotometer (Perkin Elmer Lambda 2S) with a 1 cm thick quartz cuvette.

[2] = Formation constants (Kf) by UV–visible spectral displacement method, β-CD; type: physicochemical; settings: UV–visible spectral displacement with MO (MO itself by direct titration), SD <10%
Experimental: as §1, §2

[3] = Formation constants (Kf) by UV–visible spectral displacement method, HP-β-CD; type: physicochemical; settings: UV–visible spectral displacement with MO (MO itself by direct titration), SD <10%
Experimental: as §1, §2

[4] = Formation constants (Kf) by UV–visible spectral displacement method, RAMEB; type: physicochemical; settings: UV–visible spectral displacement with MO (MO itself by direct titration), SD <10%
Experimental: as §1, §2

[5] = Formation constants (Kf) by UV–visible spectral displacement method, CRYSMEB; type: physicochemical; settings: UV–visible spectral displacement with MO (MO itself by direct titration), SD <10%
Experimental: as §1, §2

[6] = Experimental: (§3) Phase solubility studies were carried out according to the method described by Higuchi and Connors. Excess amount of PP was added to 1 mL of CD solution at different concentrations ranging from 0 to 10 mM. The mixtures were shaken at 25 °C for 24 h then filtered through a 0.45 μm membrane filter. The concentration of PP in the filtrate was determined spectrophotometrically at the maximum wavelength corresponding to each PP. Phase solubility diagrams were obtained by plotting the solubility of PP as a function of CD concentration. Kf value of CD/PP inclusion complex was calculated from the linear segment of the phase–solubility diagrams using the following equation: […]
(§4) where S0 is the intrinsic solubility of PP in the absence of CD and the Slope is the slope of the phase–solubility profile. The solubilizing potential of CD was evaluated by the complexation efficiency (CE) parameter. CE equal the complex to free CD concentration ratio and was calculated from the slope of the phase solubility diagram: […]
(§5) where [CD/PP] is the concentration of dissolved inclusion complex and [CD] is the concentration of dissolved free CD. The CE can be used to calculate the PP:CD ratio as follows:
(§6) The correlation between the CE and the molecular weight of CD or guest allowed the determination of the increase in formulation bulk which can be calculated using the following equation: […]
(§7) where MWCD and MWPP are the molecular weight values of CD and PP, respectively.

[7] = Phase solubility studies, β-CD
Experimental: as §3, §4, §5, §6, §7

[8] = Phase solubility studies, HP-β-CD
Experimental: as §3, §4, §5, §6, §7

[9] = Phase solubility studies, RAMEB; settings: for Increase in formulation bulk / CE (complexation efficiency) / Kf: RAMEB; for Increase in formulation bulk: from CE and molecular weights; for CE (complexation efficiency): from slope of phase solubility diagram; for Kf: from slope of phase solubility diagram and S0, 25 °C; for St/S0 (solubility enhancement ratio): guest solubility in 10 mM RAMEB solution vs water
Experimental: as §3, §4, §5, §6, §7

[10] = Phase solubility studies, CRYSMEB
Experimental: as §3, §4, §5, §6, §7

[11] = Intrinsic solubility (S0) of PP in water; type: physicochemical; settings: thermodynamic from solid, absence of CD, 25 °C
Experimental: as §3, §4

[12] = DPPH radical scavenging activity; settings: for Change of DPPH radical scavenging activity upon complexation with CDs: PP in 10 mM CD solution vs water; for Kinetic behavior of reaction with DPPH•: PP with ethanolic DPPH• solution; for DPPH radical scavenging (antioxidant) activity of PP alone: absence of CD, 1 h (3, 4, 6, 7) or 15 h (1, 2, 5), 25 °C
Experimental: The 2,2-diphenyl-1-picrylhydrazyl (DPPH) radical scavenging activity of PP and their inclusion complexes was measured using the method described by Brand-Williams, Cuvelier, and Berset (1995) with some modifications. 1 mg of PP was dissolved in 50 mL of water, or 10 mM CD solution. 2 mL aliquot of the solution was vigorously mixed with 2 mL of ethanolic DPPH^• solution (0.1 mM). […]. Blank sample was prepared by mixing 2 mL of distilled water with 2 mL of DPPH^• solution. The scavenging activity was calculated using the following equation: […]
where As and A0 are the absorbance of sample and blank sample, respectively.

[13] = parameters: method as in earlier work; settings: cited from earlier work
[14] = α-CD; ref 24; cited from earlier work
[15] = β-CD, cited from earlier work
[16] = HP-β-CD, cited from earlier work
[17] = RAMEB, cited from earlier work
[18] = CRYSMEB, cited from earlier work

## O=C(O)/C=C/c1ccc(O)cc1 [p-Coumaric acid (5), p-coumaric acid]
[1]
  Formation constant (Kf): 1816 M⁻¹
[2]
  Formation constant (Kf): 338 M⁻¹
[3]
  Formation constant (Kf): 787 M⁻¹
[4]
  Formation constant (Kf): 1030 M⁻¹
[5]
  Formation constant (Kf): 668 M⁻¹
[6]
  CE (complexation efficiency): 4.17
  Increase in formulation bulk: 7
  Kf: 1988 M⁻¹
  Molar ratio (PP:CD): 1:1.24
[7]; guest solubility in 10 mM β-CD solution vs water
  St/S0 (solubility enhancement ratio): 2.8
[7]; β-CD, from CE and molecular weights
  Increase in formulation bulk: 18
[7]; β-CD, from slope of phase solubility diagram
  CE (complexation efficiency): 0.64
[7]; β-CD, from slope of phase solubility diagram and S0, 25 °C (linear portion for 1 and 2)
  Kf: 306 M⁻¹
[8]; HP-β-CD, from CE and molecular weights
  Increase in formulation bulk: 13
[8]; HP-β-CD, from slope of phase solubility diagram
  CE (complexation efficiency): 2.30
[8]; HP-β-CD, from slope of phase solubility diagram and S0, 25 °C
  Kf: 1099 M⁻¹
[8]; guest solubility in 10 mM HP-β-CD solution vs water
  St/S0 (solubility enhancement ratio): 4.4
[9]
  Increase in formulation bulk: 11
  CE (complexation efficiency): 2.57
  Kf: 1228 M⁻¹
  St/S0 (solubility enhancement ratio): 4.4
[10]; CRYSMEB, from CE and molecular weights
  Increase in formulation bulk: 11
[10]; CRYSMEB, from slope of phase solubility diagram
  CE (complexation efficiency): 1.89
[10]; CRYSMEB, from slope of phase solubility diagram and S0, 25 °C
  Kf: 900 M⁻¹
[10]; guest solubility in 10 mM CRYSMEB solution vs water
  St/S0 (solubility enhancement ratio): 4
[11]
  solubility at 24 h: 344 µg/mL (≈ 2.1 mM)
[12]
  Change of DPPH radical scavenging activity upon complexation with CDs: kept unchanged
  Kinetic behavior of reaction with DPPH•: slow kinetic behavior
  DPPH radical scavenging (antioxidant) activity of PP alone: higher antioxidant activity
[13]
  log P: 1.43

## C=CCc1ccc(O)c(OC)c1 [Eugenol (4), eugenol]
[1]
  Formation constant (Kf): 350 M⁻¹
[3]
  Formation constant (Kf): 436 M⁻¹
[6]
  CE (complexation efficiency): 1.56
  Increase in formulation bulk: 10
  Kf: 246 M⁻¹
  Molar ratio (PP:CD): 1:1.64
[7]
  CE (complexation efficiency): 3.25
  Increase in formulation bulk: 9
  Kf: 513 M⁻¹
  Molar ratio (PP:CD): 1:1.31
[8]
  CE (complexation efficiency): 2.81
  Increase in formulation bulk: 12
  Kf: 445 M⁻¹
  Molar ratio (PP:CD): 1:1.36
[9]
  Increase in formulation bulk: 11
  CE (complexation efficiency): 3.48
  Kf: 550 M⁻¹
  St/S0 (solubility enhancement ratio): 2.2
[10]
  CE (complexation efficiency): 2.78
  Increase in formulation bulk: 10
  Kf: 440 M⁻¹
  Molar ratio (PP:CD): 1:1.36
[11]
  solubility at 24 h: 1040 µg/mL (≈ 6.32 mM)
[12]
  Change of DPPH radical scavenging activity upon complexation with CDs: kept unchanged
  Kinetic behavior of reaction with DPPH•: reacted rapidly
  DPPH radical scavenging (antioxidant) activity of PP alone: higher antioxidant activity
[14]
  Formation constant (Kf): 94 M⁻¹
[15]; ref 21
  Formation constant (Kf): 322 M⁻¹
[15]; ref 24
  Formation constant (Kf): 264 M⁻¹
[15]; ref 25
  Formation constant (Kf): 357 M⁻¹
[16]; ref 21
  Formation constant (Kf): 445 M⁻¹
[16]; ref 24
  Formation constant (Kf): 462 M⁻¹
[17]; ref 21
  Formation constant (Kf): 521 M⁻¹
[17]; ref 24
  Formation constant (Kf): 568 M⁻¹
[18]; ref 21
  Formation constant (Kf): 401 M⁻¹
[18]; ref 24
  Formation constant (Kf): 454 M⁻¹
[13]
  log P: 2.100
